Measurements: publication PMC8492687, “An ethylene biosynthesis enzyme controls quantitative variation in maize ear length and kernel yield” (Nature Communications, 2021)

Molecular target: T1, ZmACO2 (Zea mays, UniProt A0A804UDP7)
T1 construct: gene LOC100382364
Assay: ethylene production by gas chromatography with flame-ionization detection
Type: biochemical
Conditions: 5 mM ascorbate, 20 mM bicarbonate, 0.02 mM iron sulfate, 1 mM DTT, 10% glycerol, MOPS pH 7.2, 30 °C; ACC varied, Michaelis-Menten fit drawn

T1 sequence (A0A804UDP7 1-326): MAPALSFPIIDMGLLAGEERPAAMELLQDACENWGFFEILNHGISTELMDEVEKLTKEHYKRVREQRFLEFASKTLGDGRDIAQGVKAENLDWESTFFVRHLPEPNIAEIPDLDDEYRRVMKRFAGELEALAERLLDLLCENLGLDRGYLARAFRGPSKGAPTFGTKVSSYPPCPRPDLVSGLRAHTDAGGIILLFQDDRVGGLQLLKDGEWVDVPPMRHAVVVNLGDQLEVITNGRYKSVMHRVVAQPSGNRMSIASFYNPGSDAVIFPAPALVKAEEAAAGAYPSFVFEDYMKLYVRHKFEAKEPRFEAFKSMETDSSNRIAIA

Compound: NC1(C(=O)O)CC1 [ACC]
- ethylene production by gas chromatography with flame-ionization detection: The amount of ethylene production catalyzed by ZmACO2 increased exponentially up to an ACC concentration
